# Tests used:
# CYP3A = CYP3A probe substrate midazolam pharmacokinetics with EVG/ATV versus EVG/r; conditions: midazolam oral syrup 5 mg with last dose; EVG/ATV vs. EVG/r
# Method: (§1) Healthy subjects received EVG/r 300/100 mg or EVG/ATV 300/400 mg in a randomized, crossover manner for 10 days each, with the last dose being coadministered with the CYP3A probe substrate midazolam (oral syrup; 5 mg) and pharmacokinetic (PK) sampling performed. […] ATV, midazolam, and ritonavir pharmacokinetics were also determined for descriptive statistics.
# [1] = Pharmacokinetic interaction between atazanavir and the Compound: EVG/ATV versus EVG/r crossover in healthy subjects; conditions: for half-life: human, plasma
# Method: This study evaluated the safety and steady-state pharmacokinetics of the co-administered Compound and ATV.
# as §1
# [2] = Pharmacokinetic interaction between atazanavir/r and the Compound, steady-state PK in healthy subjects (studies 1 and 2); assay type: in vivo, human; conditions: for AUCtau % GMR (90% CI) / Cmax % GMR (90% CI) / Ctau % GMR (90% CI): coadministration:alone, 14 days
# Source text: In study 1, 33/61 and study 2, 19/30 subjects completed each study; discontinuations were mostly for known ATV adverse events.
# [3] = Similar studies of the effect of five protease inhibitors on the pharmacokinetics of the Compound; assay type: in vivo; conditions: protease inhibitors with ritonavir 100 mg QD to 200 mg BID
# Method: These studies employed various doses of ritonavir (100 mg QD to 200 mg BID).
# [4] = EVG/ATV 300/400 mg vs. EVG/r 300/100 mg, 10 days each, n=14
# [5] = Study 1, the Compound 200 mg (test and reference) + ATV/r 300/100 mg QD, n=33
# [6] = Study 2, the Compound test 85 mg, reference 150 mg, ATV/r 300/100 mg QD, n=20
# [7] = ATV 400 mg coadministered with EVG 300 mg
structure (smiles),measurement,setting,value
Cc1ncc2n1-c1ccc(Cl)cc1C(c1ccccc1F)=NC2 [midazolam],AUCinf geometric mean ratio (90% CI),CYP3A,"89.5 (80.7, 99.3) %"
same,Cmax geometric mean ratio (90% CI),CYP3A,"98.8 (89.6, 109) %"
"COc1cc2c(cc1Cc1cccc(Cl)c1F)c(=O)c(C(=O)O)cn2[C@H](CO)C(C)C [the Compound, 6-(3-chloro-2-fluorobenzyl)-1-[(2S)-1-hydroxy-3-methylbutan-2-yl]-7-methoxy-4-oxo-1,4-dihydroquinoline-3-carboxylic acid]",systemic exposure,[1]; 300 mg of the Compound with atazanavir versus 300 mg with ritonavir,equivalent
same,AUCtau geometric mean ratio (90% CI),[1]; [4],"107 (95.6, 119) %"
same,Cmax geometric mean ratio (90% CI),[1]; [4],"108 (99, 119) %"
same,Ctau geometric mean ratio (90% CI),[1]; [4],"89.9 (71.4, 113) %"
same,adverse events,"[1]; EVG/r 300/100 mg or EVG/ATV 300/400 mg, 10 days each, healthy subjects",No grade 4 AE or serious AE were observed
same,half-life,"[1]; median T1/2, EVG/ATV 300/400 mg",5.2 h
same,half-life,"[1]; median T1/2, EVG/r 300/100 mg",6.3 h
same,systemic exposure,[2]; 85 mg of the Compound with ritonavir-boosted atazanavir versus 150 mg dose of the Compound alone,equivalent
same,AUCtau % GMR (90% CI),[2]; [5],200%
same,Cmax % GMR (90% CI),[2]; [5],185%
same,Ctau % GMR (90% CI),[2]; [5],288%
same,AUCtau % GMR (90% CI),[2]; [6],107%
same,Cmax % GMR (90% CI),[2]; [6],90.9%
same,Ctau % GMR (90% CI),[2]; [6],138%
same,exposures upon coadministration with ATV/r,[2]; coadministration with ATV/r,elevated
"COC(=O)N[C@H](C(=O)N[C@@H](Cc1ccccc1)[C@@H](O)CN(Cc1ccc(-c2ccccn2)cc1)NC(=O)[C@@H](NC(=O)OC)C(C)(C)C)C(C)(C)C [ATV, 1-[4-(pyridine-2-yl)-phenyl]-4(S)-2,5-bis-[N-(N-methoxycarbonyl-(L)-tert-leucyl)amino]-6-phenyl-2-axahexane, reference compound]",AUCtau and Ctau compared with historical data,[1]; [7],lower than historical data
same,Mean (% CV) Ctau,[1]; [7],74.5 (45.7%) ng/ml
same,effect on the pharmacokinetics of the Compound,[3],improved pharmacokinetic effect
